Measurements published in ChEMBL document CHEMBL3992550, “An epigenetic modifier induces production of (10'S)-verruculide B, an inhibitor of protein tyrosine phosphatases by Phoma sp. nov. LG0217, a fungal endophyte of Parkinsonia microphylla” (Bioorg Med Chem, 2017).
pIC50: −log10 of the molar value.

Columns and labels:
[1] = biological target: Tyrosine-protein phosphatase non-receptor type 6 (Homo sapiens, UniProt P29350); experiment: Inhibition of SHP1 (unknown origin) expressed in Escherichia coli BL21(DE3) using pNPP as substrate preincubated for 15 mins followed by substrate addition measured after 10 mins
Sequence of Tyrosine-protein phosphatase non-receptor type 6 (P29350 whole entry): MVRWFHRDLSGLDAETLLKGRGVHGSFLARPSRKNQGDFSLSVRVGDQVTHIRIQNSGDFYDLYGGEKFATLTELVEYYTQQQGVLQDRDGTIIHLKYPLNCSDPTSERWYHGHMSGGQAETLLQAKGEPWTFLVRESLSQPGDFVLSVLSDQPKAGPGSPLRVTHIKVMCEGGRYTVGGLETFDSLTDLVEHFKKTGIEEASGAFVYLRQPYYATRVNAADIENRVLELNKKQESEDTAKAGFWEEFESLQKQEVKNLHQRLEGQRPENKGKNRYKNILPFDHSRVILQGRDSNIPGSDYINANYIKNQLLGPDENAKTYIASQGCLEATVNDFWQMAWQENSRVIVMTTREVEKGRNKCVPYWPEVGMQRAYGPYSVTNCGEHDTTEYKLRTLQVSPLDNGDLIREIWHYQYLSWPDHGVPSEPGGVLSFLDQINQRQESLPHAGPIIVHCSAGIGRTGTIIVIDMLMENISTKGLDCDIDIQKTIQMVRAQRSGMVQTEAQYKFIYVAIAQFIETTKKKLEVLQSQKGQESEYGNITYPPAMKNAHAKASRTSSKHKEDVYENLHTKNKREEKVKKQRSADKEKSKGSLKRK

[2] = biological target: T1, Tyrosine-protein phosphatase non-receptor type 1 (Homo sapiens, UniProt P18031); experiment: Inhibition of PTP1B (unknown origin) expressed in Escherichia coli BL21(DE3) using pNPP as substrate preincubated for 15 mins followed by substrate addition measured after 10 mins
T1 sequence (P18031 whole entry): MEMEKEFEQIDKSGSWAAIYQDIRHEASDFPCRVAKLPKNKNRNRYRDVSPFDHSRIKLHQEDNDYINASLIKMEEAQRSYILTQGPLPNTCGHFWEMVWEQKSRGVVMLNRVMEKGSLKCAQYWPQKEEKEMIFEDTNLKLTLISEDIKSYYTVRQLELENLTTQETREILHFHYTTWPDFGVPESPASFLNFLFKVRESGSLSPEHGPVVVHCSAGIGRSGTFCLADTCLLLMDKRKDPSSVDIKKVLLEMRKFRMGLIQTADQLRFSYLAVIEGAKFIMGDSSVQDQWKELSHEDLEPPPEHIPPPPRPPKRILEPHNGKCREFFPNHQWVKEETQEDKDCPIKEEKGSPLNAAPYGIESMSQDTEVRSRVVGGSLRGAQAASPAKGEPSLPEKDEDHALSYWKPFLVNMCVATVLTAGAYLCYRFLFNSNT

[3] = biological target: T2, Tyrosine-protein phosphatase non-receptor type 2 (Homo sapiens, UniProt P17706); experiment: Inhibition of TCPTP (unknown origin) expressed in Escherichia coli BL21(DE3) using pNPP as substrate preincubated for 15 mins followed by substrate addition measured after 10 mins
T2 sequence (P17706 whole entry): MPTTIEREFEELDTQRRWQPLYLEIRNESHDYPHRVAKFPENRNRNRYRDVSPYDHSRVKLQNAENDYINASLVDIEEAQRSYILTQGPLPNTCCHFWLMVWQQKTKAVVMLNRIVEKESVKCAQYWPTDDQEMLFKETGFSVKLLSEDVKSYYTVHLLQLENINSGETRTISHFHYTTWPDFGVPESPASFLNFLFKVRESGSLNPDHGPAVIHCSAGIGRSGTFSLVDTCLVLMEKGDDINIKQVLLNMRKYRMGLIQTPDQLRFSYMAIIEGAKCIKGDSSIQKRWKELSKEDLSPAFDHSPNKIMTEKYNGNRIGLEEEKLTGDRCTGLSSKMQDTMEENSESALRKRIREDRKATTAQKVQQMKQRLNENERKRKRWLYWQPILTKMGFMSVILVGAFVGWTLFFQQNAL

`C/C(=C\Cc1c(O)cc(O)c2c1C[C@@H](C)OC2=O)CC/C=C(\C)CC[C@H](O)C(C)(C)O` gave a pIC50 [1] of 5.06, a pIC50 [2] of 4.86 and a pIC50 [3] of 4.78.
